Reference: patent US9957257B2, “Amide compounds as 5-HT4 receptor agonists” (SUVEN LIFE SCIENCES LIMITED, priority 2015, dated 2018)
Values joined by “and” are separate entries in the source; they are usually repeats but may differ in a detail not shown here. Identical values can stand only once. Counter-ions that a name gives are not always drawn.

Biological target: T1, recombinant human 5-HT4 receptor (Homo sapiens, UniProt Q13639)
T1 construct: expressed in transfected cells
Test: Determination of EC50 values for 5-HT4 receptor (CHO cells, pCRE-Luc reporter)
Type: cell-based
Conditions: luciferase reporter, 4 hours incubation, read-out: 5-HT4 receptor agonistic binding in-vitro EC50
Experimental: A stable CHO cell line expressing recombinant human 5-HT4 receptor and pCRE-Luc reporter system was used for cell-based assay. The assay offers a non-radioactive based approach to determine binding of a compound to GPCRs. In this specific assay, the level of intracellular cyclic AMP, which is modulated by activation, or inhibition of the receptor is measured. The recombinant cells harbor luciferase reporter gene under the control of cAMP response element.
The above cells were grown in 96 well clear bottom white plates in Hams F12 medium containing 10% fetal bovine serum (FBS). Prior to the addition of compounds or standard agonist, cells were serum starved overnight. Increasing concentrations of test compounds were added in OptiMEM medium to the cells. The incubation was continued at 37° C. in CO2 incubator for 4 hours. Medium was removed and cells were washed with phosphate buffered saline. The cells were lysed and luciferase activity was measured in a Luminometer. Luminescence units were plotted against the compound concentrations using Graphpad software. EC50 values of the compounds were defined as the concentration required in stimulating the luciferase activity by 50%.

T1 sequence (Q13639 whole entry): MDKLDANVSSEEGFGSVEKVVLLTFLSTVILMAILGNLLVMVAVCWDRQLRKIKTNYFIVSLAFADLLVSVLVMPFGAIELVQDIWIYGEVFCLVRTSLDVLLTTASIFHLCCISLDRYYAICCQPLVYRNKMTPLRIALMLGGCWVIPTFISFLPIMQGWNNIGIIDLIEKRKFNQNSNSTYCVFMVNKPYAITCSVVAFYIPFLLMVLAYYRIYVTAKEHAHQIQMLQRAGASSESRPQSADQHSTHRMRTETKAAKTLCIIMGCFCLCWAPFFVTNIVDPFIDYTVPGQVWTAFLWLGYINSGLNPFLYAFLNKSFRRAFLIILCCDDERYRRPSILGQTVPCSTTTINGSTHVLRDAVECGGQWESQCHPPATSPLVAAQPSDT

SMILES: Nc1c(Br)cc(C(=O)NCC2C3CN(CC4CCOCC4)CC23)c2c1CCCO2 (stereo not drawn) [Example 12, 5-Amino-6-bromo-N-{[3-(tetrahydro-2H-pyran-4-ylmethyl)-3-azabicyclo[3.1.0]hex-6-yl]methyl}chroman-8-carboxamide L(+)-tartarate]
- EC50: 1.1 to 5 nM

SMILES: CC(C)(F)CN1CCC(F)(CNC(=O)c2cc(Cl)c(N)c3c2OCCC3)CC1 [Example 57, 5-Amino-6-chloro-N-{[1-(2-fluoro-2-methylpropyl)-4-fluoro-4-piperidinyl]methyl}chroman-8-carboxamide L(+)-tartarate]
- EC50: 5.1 to 10 nM

SMILES: CC(C)(O)CN1CCC(CNC(=O)c2cc(Cl)c(N)c3c2OCCC3)CC1 [Example 41, 5-Amino-6-chloro-N-{[1-(2-hydroxy-2-methylpropyl)-4-piperidinyl]methyl}chroman-8-carboxamide L(+)-tartarate]
- EC50: 10.1 to 20 nM

SMILES: Cc1cc2c(N)c(Cl)cc(C(=O)NCC3C4CN(CC(C)(C)O)CC34)c2o1 (centres unmarked) [Example 54, 4-Amino-5-chloro-2-methyl-N-{[3-(2-hydroxy-2-methylpropyl)-3-azabicyclo[3.1.0]hex-6-yl]methyl}benzofuran-7-carboxamide]
- EC50: 5.1 to 10 nM

SMILES: CC(C)(O)CN1CCC(CNC(=O)c2cc(Cl)c(N)c3ccoc23)CC1 [Example 49, 4-Amino-5-chloro-N-{[1-(2-hydroxy-2-methylpropyl)-4-piperidinyl]methyl}benzofuran-7-carboxamide L(+)-tartarate]
- EC50: 1.1 to 5 nM

SMILES: Nc1c(Br)cc(C(=O)NCC2C3CN(C4CCOCC4)CC23)c2c1CCO2 (centres unmarked) [Example 29, 4-Amino-5-bromo-N-{[3-(tetrahydropyran-4-yl)-3-azabicyclo[3.1.0]hex-6-yl]methyl}-2,3-dihydrobenzofuran-7-carboxamide oxalate]
- EC50: 10.1 to 20 nM

SMILES: Nc1c(Cl)cc(C(=O)NCC2C3CN(C4CCOCC4)CC23)c2c1CCCO2 (stereo not drawn) [Example 6, 5-Amino-6-chloro-N-{[3-(tetrahydro-2H-pyran-4-yl)-3-azabicyclo[3.1.0]hex-6-yl]methyl}chroman-8-carboxamide L(+)-tartarate]
- EC50: 1.1 to 5 nM

SMILES: COCCCN1CC2C(CNC(=O)c3cc(Cl)c(N)c4c3OCC4)C2C1 (centres unmarked) [Example 62, 4-Amino-5-chloro-N-{[3-(3-methoxypropyl)-3-azabicyclo[3.1.0]hex-6-yl]methyl}-2,3-dihydrobenzofuran-7-carboxamide oxalate]
- EC50: 1.1 to 5 nM

SMILES: Nc1c(Cl)cc(C(=O)NCC2C3CN(CC4(F)CCOCC4)CC23)c2c1CCCO2 (stereo not drawn) [Example 36, 5-Amino-6-chloro-N-{[3-(4-fluorotetrahydro-2H-pyran-4-ylmethyl)-3-azabicyclo[3.1.0]hex-6-yl]methyl}chroman-8-carboxamide L(+)-tartarate]
- EC50: ≤ 1 nM

SMILES: CC(C)N1CC2C(CNC(=O)c3cc(Cl)c(N)c4c3OCC4)C2C1 (centres unmarked) [Example 20, 4-Amino-5-chloro-N-[(3-isopropyl-3-azabicyclo[3.1.0]hex-6-yl)methyl]-2,3-dihydrobenzofuran-7-carboxamide oxalate]
- EC50: 5.1 to 10 nM

SMILES: Cc1cc2c(N)c(Cl)cc(C(=O)NCC3C4CN(CC5CCOCC5)CC34)c2o1 (centres unmarked) [Example 18, 4-Amino-5-chloro-2-methyl-N-{[3-(tetrahydro-2H-pyran-4-ylmethyl)-3-azabicyclo[3.1.0]hex-6-yl]methyl}benzofuran-7-carboxamide hydrochloride]
- EC50: 1.1 to 5 nM

SMILES: Nc1ccc(C(=O)NCC2C3CN(CC4CCOCC4)CC23)c2c1CCCO2 (stereo not drawn) [Example 7, 5-Amino-N-{[3-(tetrahydro-2H-pyran-4-ylmethyl)-3-azabicyclo[3.1.0]hex-6-yl]methyl}chroman-8-carboxamide L(+)-tartarate]
- EC50: 10.1 to 20 nM

SMILES: COCCCN1CC2C(CNC(=O)c3cc(Cl)c(N)c4cc(C)oc34)C2C1 (centres unmarked) [Example 64, 4-Amino-5-chloro-2-methyl-N-{[3-(3-methoxypropyl)-3-azabicyclo[3.1.0]hex-6-yl]methyl}benzofuran-7-carboxamide hydrochloride]
- EC50: 1.1 to 5 nM

SMILES: CC(C)(O)CN1CC2C(CNC(=O)c3cc(Cl)c(N)c4c3OCC4)C2C1 (centres unmarked) [Example 42, 4-Amino-5-chloro-N-{[3-(2-hydroxy-2-methylpropyl)-3-azabicyclo[3.1.0]hex-6-yl]methyl}-2,3-dihydrobenzofuran-7-carboxamide oxalate]
- EC50: 5.1 to 10 nM

SMILES: Nc1c(Cl)cc(C(=O)NCC2C3CN(CC4(O)CCOCC4)CC23)c2c1CCCO2 (stereo not drawn) [Example 30, 5-Amino-6-chloro-N-{[3-(4-hydroxytetrahydro-2H-pyran-4-ylmethyl)-3-azabicyclo[3.1.0]hex-6-yl]methyl}chroman-8-carboxamide L(+)-tartarate]
- EC50: 1.1 to 5 nM

SMILES: Nc1c(Cl)cc(C(=O)NCC2C3CN(CC4CCOCC4)CC23)c2c1CCO2 (stereo not drawn) [Example 26, 4-Amino-5-chloro-N-{[3-(tetrahydropyran-4-ylmethyl)-3-azabicyclo[3.1.0]hex-6-yl]methyl}-2,3-dihydrobenzofuran-7-carboxamide L(+)-tartarate]
- EC50: 1.1 to 5 nM

SMILES: CC(C)(O)CN1CCC(CNC(=O)c2cc(Cl)c(N)c3c2OCCC3)CC1 [Example 40, 5-Amino-6-chloro-N-{[1-(2-hydroxy-2-methylpropyl)-4-piperidinyl]methyl}chroman-8-carboxamide]
- EC50: ≤ 1 nM

SMILES: CC(C)(F)CN1CCC(CNC(=O)c2cc(Cl)c(N)c3c2OCCC3)CC1 [Example 55, 5-Amino-6-chloro-N-{[1-(2-fluoro-2-methylpropyl)-4-piperidinyl]methyl}chroman-8-carboxamide]
- EC50: ≤ 1 nM

SMILES: Nc1c(Cl)cc(C(=O)NCC2C3CN(CC4CCC4)CC23)c2c1CCO2 (centres unmarked) [Example 22, 4-Amino-5-chloro-N-{[3-(cyclobutylmethyl)-3-azabicyclo[3.1.0]hex-6-yl]methyl}-2,3-dihydrobenzofuran-7-carboxamide oxalate]
- EC50: 1.1 to 5 nM

SMILES: Nc1c(Cl)cc(C(=O)NCC2C3CN(CC4CCOCC4)CC23)c2c1CCCO2 (centres unmarked) [Example 1, 5-Amino-6-chloro-N-{[3-(tetrahydro-2H-pyran-4-ylmethyl)-3-azabicyclo[3.1.0]hex-6-yl]methyl}chroman-8-carboxamide hydrochloride]
- EC50: ≤ 1 nM

SMILES: COCCCN1CC2C(CNC(=O)c3cc(Cl)c(N)c4ccoc34)C2C1 (centres unmarked) [Example 63, 4-Amino-5-chloro-N-{[3-(3-methoxypropyl)-3-azabicyclo[3.1.0]hex-6-yl]methyl}benzofuran-7-carboxamide hydrochloride]
- EC50: 5.1 to 10 nM

SMILES: Nc1c(Cl)cc(C(=O)NCC2C3CN(C4CCOCC4)CC23)c2occc12 (centres unmarked) [Example 15, 4-Amino-5-chloro-N-{[3-(tetrahydro-2H-pyran-4-yl)-3-azabicyclo[3.1.0]hex-6-yl]methyl}benzofuran-7-carboxamide oxalate]
- EC50: 10.1 to 20 nM

SMILES: Cc1cc2c(N)c(Cl)cc(C(=O)NCC3CCN(CC(C)(C)O)CC3)c2o1 [Example 52, 4-Amino-5-chloro-2-methyl-N-{[1-(2-hydroxy-2-methylpropyl)-4-piperidinyl]methyl}benzofuran-7-carboxamide L(+)-tartarate]
- EC50: ≤ 1 nM

SMILES: Nc1c(Cl)cc(C(=O)NCC2[C@H]3CN(CC4CCOC4)C[C@@H]23)c2c1CCCO2 (stereo partly drawn) [Example 8, (R,S) 5-Amino-6-chloro-N-{[3-(tetrahydro-3-furanylmethyl)-3-azabicyclo[3.1.0]hex-6-yl]methyl}chroman-8-carboxamide]
- EC50: ≤ 1 nM

SMILES: CC(C)(O)CN1CCC(F)(CNC(=O)c2cc(Cl)c(N)c3c2OCCC3)CC1 [Example 43, 5-Amino-6-chloro-N-{[4-fluoro-1-(2-hydroxy-2-methylpropyl)-4-piperidinyl]methyl}chroman-8-carboxamide]
- EC50: 1.1 to 5 nM

SMILES: COC(=O)N1CCC(N2CC3C(CNC(=O)c4cc(Cl)c(N)c5ccoc45)C3C2)CC1 (centres unmarked) [Example 17, 4-Amino-5-chloro-N-{[3-(1-methoxycarbonylpiperidine-4-yl)-3-azabicyclo[3.1.0]hex-6-yl]methyl}benzofuran-7-carboxamide oxalate]
- EC50: 5.1 to 10 nM

SMILES: CC(C)(O)CN1CCC(CNC(=O)c2cc(Br)c(N)c3c2OCCC3)CC1 [Example 46, 5-Amino-6-bromo-N-{[1-(2-hydroxy-2-methylpropyl)-4-piperidinyl]methyl}chroman-8-carboxamide L(+)-tartarate]
- EC50: ≤ 1 nM

SMILES: Nc1c(Cl)cc(C(=O)NCC2CCN(CCF)CC2)c2c1CCCO2 [Example 66, 5-Amino-6-chloro-N-{[1-(2-fluoroethyl)-4-piperidinyl]methyl}chroman-8-carboxamide]
- EC50: 1.1 to 5 nM

SMILES: Nc1c(Cl)cc(C(=O)NCC2(F)CCN(CC3CCOC3)CC2)c2c1CCCO2 (centres unmarked) [Example 10, 5-Amino-6-chloro-N-{[4-fluoro-1-(tetrahydro-3-furanylmethyl)-4-piperidinyl]methyl}chroman-8-carboxamide]
- EC50: 1.1 to 5 nM

SMILES: Nc1c(Cl)cc(C(=O)NCC2C3CN(CC4(O)CCOCC4)CC23)c2c1CCO2 (centres unmarked) [Example 35, 4-Amino-5-chloro-N-{[3-(4-hydroxytetrahydropyran-4-ylmethyl)-3-azabicyclo[3.1.0]hex-6-yl]methyl}-2,3-dihydrobenzofuran-7-carboxamide oxalate]
- EC50: 1.1 to 5 nM

SMILES: CC(C)(CO)CN1CC2C(CNC(=O)c3cc(Cl)c(N)c4c3OCCC4)C2C1 (stereo not drawn) [Example 58, 5-Amino-6-chloro-N-{[3-(3-hydroxy-2,2-dimethylpropyl)-3-azabicyclo[3.1.0]hex-6-yl]methyl}chroman-8-carboxamide L(+)-tartarate]
- EC50: ≤ 1 nM

SMILES: COCC(C)(C)CN1CC2C(CNC(=O)c3cc(Cl)c(N)c4c3OCCC4)C2C1 (centres unmarked) [Example 60, 5-Amino-6-chloro-N-{[3-(3-methoxy-2,2-dimethylpropyl)-3-azabicyclo[3.1.0]hex-6-yl]methyl}chroman-8-carboxamide]
- EC50: ≤ 1 nM and 1.1 to 5 nM
